Measured values as given in ChEMBL document CHEMBL6127040, “Discovery and optimization of isoliquiritigenin as a death-associated protein kinase 1 inhibitor” (Eur J Med Chem, 2024).

Molecular target: Death-associated protein kinase 1 (Homo sapiens, UniProt P53355)
Assay: Binding affinity to DAPK1 (unknown origin) assessed as dissociation constant by ITC analysis

Death-associated protein kinase 1, sequence (P53355 whole entry): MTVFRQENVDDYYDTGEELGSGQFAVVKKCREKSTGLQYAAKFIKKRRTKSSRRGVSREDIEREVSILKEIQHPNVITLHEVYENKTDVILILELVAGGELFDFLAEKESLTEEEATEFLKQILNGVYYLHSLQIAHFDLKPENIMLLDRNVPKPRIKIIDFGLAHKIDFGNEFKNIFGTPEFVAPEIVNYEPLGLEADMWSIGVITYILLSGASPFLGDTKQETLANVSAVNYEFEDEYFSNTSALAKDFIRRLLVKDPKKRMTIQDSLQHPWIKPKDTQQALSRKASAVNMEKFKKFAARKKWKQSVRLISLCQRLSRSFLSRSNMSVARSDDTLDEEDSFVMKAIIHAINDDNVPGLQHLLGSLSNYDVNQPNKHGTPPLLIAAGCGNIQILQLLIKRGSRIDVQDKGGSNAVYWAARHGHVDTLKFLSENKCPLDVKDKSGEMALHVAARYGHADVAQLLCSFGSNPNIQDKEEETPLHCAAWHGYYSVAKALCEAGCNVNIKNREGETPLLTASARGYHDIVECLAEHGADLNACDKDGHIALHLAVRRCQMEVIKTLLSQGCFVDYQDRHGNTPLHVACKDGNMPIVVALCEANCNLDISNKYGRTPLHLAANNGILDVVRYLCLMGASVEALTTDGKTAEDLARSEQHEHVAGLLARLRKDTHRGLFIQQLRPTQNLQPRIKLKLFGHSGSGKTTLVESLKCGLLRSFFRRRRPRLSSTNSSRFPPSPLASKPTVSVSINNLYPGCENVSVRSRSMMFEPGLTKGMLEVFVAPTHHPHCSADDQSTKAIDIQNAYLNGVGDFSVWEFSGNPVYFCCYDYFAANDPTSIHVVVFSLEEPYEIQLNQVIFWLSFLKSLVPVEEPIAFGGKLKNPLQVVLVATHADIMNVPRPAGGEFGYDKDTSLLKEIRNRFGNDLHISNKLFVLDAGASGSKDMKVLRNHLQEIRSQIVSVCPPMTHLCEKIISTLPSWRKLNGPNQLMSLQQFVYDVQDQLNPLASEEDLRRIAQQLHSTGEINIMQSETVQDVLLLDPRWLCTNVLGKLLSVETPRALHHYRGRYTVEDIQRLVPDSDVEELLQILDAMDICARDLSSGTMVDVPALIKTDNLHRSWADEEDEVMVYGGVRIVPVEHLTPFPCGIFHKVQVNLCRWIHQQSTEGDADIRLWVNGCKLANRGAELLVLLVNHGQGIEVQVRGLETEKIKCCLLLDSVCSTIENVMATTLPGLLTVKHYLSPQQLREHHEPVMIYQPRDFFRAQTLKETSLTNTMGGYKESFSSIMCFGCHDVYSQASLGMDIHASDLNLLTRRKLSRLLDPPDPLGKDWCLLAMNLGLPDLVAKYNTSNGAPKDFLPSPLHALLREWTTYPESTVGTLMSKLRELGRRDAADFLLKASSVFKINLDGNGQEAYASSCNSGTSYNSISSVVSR

O=C(/C=C/c1ccc(O)cc1)c1ccc(O)cc1O [ISOLIQUIRITIGENIN]
Kd: 2480 nM
